Measured values: paper PMC12040169 (PLOS Biology, 2025)

Assay: in vitro
Details: human, hela cells, % viability

SMILES | viability at 28.5 h, 10 µM [%]
O=[N+]([O-])c1cccc(-c2noc(COc3ccc(Br)cc3Cl)n2)c1 [CBK264452] | 101
CCCCNC(=S)N1CC[C@@H]2CN(C)C[C@]2(c2ccc(OC)c(OC)c2)C1 [CBK075101T] | 100
COc1ccc(OCC(=O)Nc2ccc(C(=O)O)c(Cl)c2)cc1 [CBK287108] | 104
Cc1noc(C)c1C(=O)N1CCC2(CC1)CC(=O)c1ccc(OCc3ccccc3)c(C)c1O2 [CBK156506] | 97.4
O=C(O)c1ccccc1C1SCCCS1 [CBK016303] | 91.4
O=C(Cc1cccc2ccccc12)Nc1ccc(Br)cc1C(=O)O [CBK268286] | 99.2
O=C(CSc1nnc(COc2ccccc2)o1)N1CCN(c2ccccc2)CC1 [CBK267185] | 97.5
O=C(Cn1ccc(=O)[nH]c1=O)NCc1ccc(OCC(F)(F)F)cc1 [CBK305041] | 109
CC(CCN(CCN)C(=O)N1CCC(Cn2cncn2)(C2CCCCC2)CC1)c1ccccc1 (centres unmarked) [CBK002130C] | 110
Cc1cc(O)c(C(C)C)cc1N1C(=O)c2ccc([N+](=O)[O-])cc2C1=O [CBK115323] | 97.7
CC(C)(C)OC(=O)NCC1CCC(C(=O)O)CC1 (centres unmarked) [CBK278598] | 94.5
O=C(c1cccs1)N1CCN(S(=O)(=O)c2cccc([N+](=O)[O-])c2)CC1 [CBK266184] | 94.7
COc1ccc(S(=O)(=O)N2CCC(C(=O)O)CC2)cc1Cl [CBK267162] | 94.9
O=C(NCc1cccc(C(F)(F)F)c1)c1ccccc1-n1cccc1 [CBK149598] | 100
CC(=O)N1CC2(CCN(Cc3nccn3C(C)C)CC2)CC1C(=O)O (centres unmarked) [CBK306587] | 93.7
O=S1(=O)N=C(c2cccs2)C=C(C(F)(F)F)N1 [CBK019309] | 106
O=C(NC1CC1)C1(Cc2ccccc2-c2cccnc2)CCOCC1 [CBK285222] | 88.7
COc1cccc(C(NC(=O)Cc2ccc(-n3nnnc3C)cc2)c2ccccc2)c1 (centres unmarked) [CBK285605] | 93.4
O=C(CN1C(=O)c2ccccc2C1=O)N1CCN(Cc2ccc3c(c2)OCO3)CC1 [CBK074846] | 97.3
Cc1ccc(C(=O)Nc2cccc(OC(=O)c3cc(S(=O)(=O)N4CCCCC4)ccc3Cl)c2)cc1 [CBK261368] | 97.8
FC(F)(F)c1ccc(CNc2nccnc2-c2cccs2)cc1 [CBK036834] | 98.6
Cc1nnc(C(C)N2CCN(Cc3noc(C(C)(C)C)n3)CC2)o1 (centres unmarked) [CBK305171] | 85.7
COc1ccc(CNc2cccc(C(=O)O)c2C)cc1OC [CBK269634] | 109
COc1cccc(-c2ccc3c(c2)[nH]c(=O)n3C2CCN(C(=O)c3ccc(C)c(OC)c3)CC2)c1 [CBK153141] | 102
CC(C)CC1C(C#N)=C(N)Oc2[nH]nc(-c3cccs3)c21 (centres unmarked) [CBK267449] | 104
Clc1cccc(-c2nc(NCCCN3CCOCC3)c3ccccc3n2)c1 [CBK267309] | 76
CN(C)CC(c1ccccc1)c1nnc2n1-c1ccc(S(C)(=O)=O)cc1C(c1ccccc1)=NC2 (centres unmarked) [CBK005856G] | 102

SMILES | viability at 28.5 h, 10 µM [%]
Cn1cc(CNS(=O)(=O)c2ccc(F)c(Br)c2)cn1 [CBK305174] | 92.5
O=C(O)C1CCN(C(=O)CCC2CCCCC2)CC1 [CBK286804] | 89.3
Cc1cccc(C=C(Cl)c2nc3sc(C(=O)O)c(C)c3c(=O)[nH]2)c1 [CBK295626] | 91.6
CC1CCCN(C(=O)c2cc(S(=O)(=O)N3CCOCC3)ccc2Cl)C1 (centres unmarked) [CBK305012] | 99.5
COc1cccc(NC(=O)CC(CN2CCC(O)CC2)C(=O)O)c1 (centres unmarked) [CBK286842] | 93
COc1ccc(C)cc1S(=O)(=O)N(CC(=O)Nc1ccccc1C)c1ccc(Cl)cc1 [CBK267995] | 90.1
CN1CCN(C(C(=O)O)c2cn(CCC(=O)O)c3ccc(Br)cc23)CC1 (centres unmarked) [CBK286698] | 103
O=C1CC(c2ccc(C(=O)O)cc2)c2sccc2N1 (centres unmarked) [CBK287119] | 91.9
Fc1cc(Br)ccc1-c1cn(-c2ccc3[nH]ccc3c2)nn1 [CBK113146] | 91.2
O=C(Nc1ccc(S(=O)(=O)NCCN2CCOCC2)cc1)N1CCCC1 [CBK270015] | 89.8
CCOC(=O)Cn1nc([N+](=O)[O-])c(Cl)c1C [CBK269605] | 86.4
CC(C)C[C@H]([C@@H]1C[C@@H](C(C)C)C(=O)O1)N1C(=O)c2ccccc2C1=O [CBK011526] | 93.9
CCOC(=O)c1c(NC(=O)CC2Nc3ccccc3NC2=O)sc(C)c1C (centres unmarked) [CBK263381] | 94.2
Cc1nc2c(s1)C[C@@H]1[C@](C)(CO)[C@H](O)CC[C@@]1(C)[C@@H]2CC(=O)O [CBK289571] | 93.3
Cc1ccc(-n2c(SCC(=O)Nc3ccc(C)c([N+](=O)[O-])c3)nnc2-c2ccccc2O)c(C)c1 [CBK268769] | 96.6
O=S(=O)(CCN1CCN(Cc2ccccc2)CC1)c1ccc(F)cc1 [CBK074809] | 108
Nc1nc(N)nc(-c2ccc(-c3nc(N)nc(N)n3)cc2)n1 [CBK261494] | 90.4
Cc1ccc(OCC(=O)NC(=S)Nc2ccc(Cl)c(-c3nc4ncccc4o3)c2)cc1 [CBK263930] | 103
O=[N+]([O-])c1ccccc1S(=O)(=O)NCc1ccccn1 [CBK261751] | 92.6
COc1cncc(-c2cccc(NCC(c3cccnc3)N(C)C)n2)c1 (centres unmarked) [CBK037741] | 93.6
Cc1cc(C)n(C(=O)c2ccc([N+](=O)[O-])cc2N)n1 [CBK266491] | 102
O=C(NCCNCc1ccccc1)c1ccccc1 [CBK012505] | 119
COC(=O)[C@@H]1CN(C(=O)C2CCCC2)CCN1C(=O)c1cccs1 [CBK289609] | 93.5
COc1ccccc1/C=C/c1nn2c(C(C)C)nnc2s1 [CBK269501] | 79.3
O=C(NCCNc1cnccn1)c1cccc(Cl)c1Cl [CBK305727] | 84.9
COc1ccc(C(=O)NC2CCCNC2=O)s1 (centres unmarked) [CBK282938] | 88.4
COc1ccc(Nc2cc(-c3ccccc3OC)ncn2)cn1 [CBK037176] | 88.9

SMILES | viability at 28.5 h, 10 µM [%]
O=C1NCC2(CCN(C(=O)C3CC3)CC2)Oc2ccccc21 [CBK282918] | 101
COc1cccc(CNC(C(=O)O)c2ccc3c(c2)OCO3)c1 (centres unmarked) [CBK015420D] | 89.1
Cc1ccc(NS(=O)(=O)c2cc(C(=O)N3CCN(C)CC3)ccc2C)cc1 [CBK268577] | 92.5
Cc1cccc(C)c1-c1cn2ccnc2c(NC2CCOCC2)n1 [CBK037311] | 91.6
O=C1c2ccccc2C(=O)N1CCOc1nccnc1-c1cnn(Cc2ccccc2)c1 [CBK107089] | 102
CNC(=O)Nc1ccccc1NC(=O)NC [CBK261401] | 93
NC(=O)COc1ccc(C2Nc3ccccc3C(=O)N2C2CC2)cc1 (centres unmarked) [CBK295198] | 98.2
CCNC(=S)N1CCN(CCNC=C2C(=O)CC(C)(C)CC2=O)CC1 [CBK263661] | 90.1
CC(Cc1nc(-c2cnn(C)n2)cs1)n1cc(Cl)cn1 (centres unmarked) [CBK304256] | 90.8
O=C(CSCc1ccc(Br)cc1)NCc1ccccn1 [CBK268435] | 102
Cn1c(=O)c2c(nc(N3CCOCC3)n2CCC/N=C2\CCCCN2)n(C)c1=O [CBK218356] | 105
COc1cc(C)ccc1S(=O)(=O)Nc1cc(OC2CCNCC2)c2occc2c1 [CBK074192C] | 98.6
CN(C)c1ccc(CC(=O)N2CCCc3ccccc32)cc1 [CBK200347] | 83.6
Cn1cc([C@@H]2CN(Cc3ccc(F)c(F)c3)C[C@H]2N)c2ccncc21 [CBK285179] | 88.3
Cc1nnc(Sc2nc3ccccc3nc2C(F)(F)F)s1 [CBK093774] | 94.8
COc1cccc(CN2CCC3(CCCNC3=O)CC2)c1 [CBK284824] | 96.6
Cc1c(NC(=O)CN2CCCC(C)C2)ccc2nsnc12 (centres unmarked) [CBK269248] | 97.4
COc1ccc(-c2c[nH]c([C@@H]3COCCN3Cc3ccccc3O)n2)cc1 [CBK289296] | 85.1
CCn1cc(C(=O)N2CCN(Cc3ccco3)C[C@@H]2C(C)C)cn1 [CBK284307] | 97.7
COc1ccccc1NS(=O)(=O)c1ccc(C)c(C(=O)NCC(c2ccco2)N2CCCCC2)c1 (centres unmarked) [CBK296669] | 81.3
CC(C)Nc1nc2cc(Cl)c(Cl)cc2nc1Sc1cccc(O)c1 [CBK093732] | 94.8
CCNc1cncc(-c2cc(OC)c(OC)c(OC)c2)n1 [CBK065336] | 99.1
Nc1cccc(-c2ccc(OC3CCNCC3)cc2)c1 [CBK126959T] | 83.9
CCCn1nnn(-c2cc(OCCOCC)c(Cl)cc2Cl)c1=O [CBK026016] | 99
Cc1sc2ncnc(N3CCCC3Cn3cccn3)c2c1C (centres unmarked) [CBK304570] | 90.9
CCc1nn(CCN2CCCC2)c(=O)c2cc3sccc3n12 [CBK284075] | 83.5
